One substance from US5461034A, “Osteogenic growth polypeptides identified from regenerating bone marrow” (Yissum Research Development Company of the Hebrew …, priority 1993, dated 1995) can be followed below.

This test relates to ROS 17/2 cells. In words: Anti-PDGF antibody neutralization in ROS 17/2 cells. The format is cell-based, rat. As to conditions: intermediate doses of HBMCM preparations. As to the method: Anti-PDGF antibody neutralization experiments were carried out with polyclonal antiserum prepared in rabbits against PDGF. PDGF or HBMCM-derived preparations were added to ROS 17/2 cells in the presence or absence of antibody and examined for effects on [^3 H]TdR incorporation.

Consider PDGF, for which the “effect of polyclonal anti-PDGF antibodies on mitogenic effect” value is on record as “inhibited PDGF-stimulated replication”.
